Source: paper PMC13578988, “No ancillary proteins are essential for the functional heterologous expression of the homomeric α6 nicotinic acetylcholine receptor from the brown castor tick Ixodes ricinus” (Current Research in Parasitology & Vector-borne Diseases, 2026)

Key:
Asu-ACR-16 = conditions: cited from earlier work
[1] = test system: T1, Iricα6B (homomeric α6 nicotinic acetylcholine receptor, splice variant B); experiment: two-electrode voltage clamp in Xenopus laevis oocytes expressing Iricα6B (agonist dose-response); type: cell-based, Ixodes ricinus
T1 construct: full-length Iricα6B, 517 amino acids (exon 3b only), homopentamer

| SMILES | EC50 (Asu-ACR-16) [nM] | EC50 [1] [nM] |
| --- | --- | --- |
| CC(=O)OCC[N+](C)(C)C [ACh, acetylcholine] | 5900 |  |
| CC(=O)OCC[N+](C)(C)C [acetylcholine] |  | 2000 |
| CN1CCC[C@H]1c1cccnc1 [nicotine] | 4500 |  |
| CN/C(=N/CC1CCOC1)N[N+](=O)[O-] (centres unmarked) [dinotefuran] |  | 0.42 |
| O=[N+]([O-])NC1=NCCN1Cc1ccc(Cl)nc1 [imidacloprid] |  | 11.6 |
